The values that follow come from BindingDB's records for doi:10.1016/s0960-894x(99)00488-6 (Smithkline Beecham Pharmaceuticals, 1999).

The assay deals with Tyrosine--tRNA ligase (Staphylococcus aureus). As to the kind of experiment: Compound was tested for inhibition of Staphylococcus aureus tyrosyl tRNA Synthetase.

What is called IC50 is the concentration that gives 50% inhibition. Read a low IC50 as higher potency. In the case of `N[C@@H](Cc1ccc(O)cc1)C(=O)NC(C(=O)O)c1ccccc1O` (stereo partly drawn) [[(S)-2-Amino-3-(4-hydroxy-phenyl)-propionylamino]-(2-hydroxy-phenyl)-acetic acid], the IC50 is 0.8 µM.

In turn, `N[C@@H](Cc1ccc(O)cc1)C(=O)N[C@H](C(=O)O)c1ccc(O)c(O)c1` [(S)-[(S)-2-Amino-3-(4-hydroxy-phenyl)-propionylamino]-(3,4-dihydroxy-phenyl)-acetic acid] displayed an IC50 of 11 µM.

With `N[C@@H](Cc1ccc(O)cc1)C(=O)N[C@H](C(=O)O)c1ccccc1` [(S)-[(S)-2-Amino-3-(4-hydroxy-phenyl)-propionylamino]-phenyl-acetic acid], 0.9 µM corresponded to half-maximal inhibition (IC50).

With `COC(=O)C(NC(=O)[C@@H](N)Cc1ccc(O)cc1)c1ccccc1O` (stereo partly drawn) [[(S)-2-Amino-3-(4-hydroxy-phenyl)-propionylamino]-(2-hydroxy-phenyl)-acetic acid methyl ester], the IC50 is 1.2 µM.

In the case of `N[C@@H](Cc1ccc(O)cc1)C(=O)NC(C(=O)O)c1ccccc1F` (stereo partly drawn) [[(S)-2-Amino-3-(4-hydroxy-phenyl)-propionylamino]-(2-fluoro-phenyl)-acetic acid], half-maximal inhibition (IC50) required 7.8 µM.

`N[C@@H](Cc1ccc(O)cc1)C(=O)NC(C(=O)O)c1cccc(O)c1` (stereo partly drawn) [[(S)-2-Amino-3-(4-hydroxy-phenyl)-propionylamino]-(3-hydroxy-phenyl)-acetic acid] came in with an IC50 of 3.4 µM.
